Assay results reported in paper PMC2957478 (Bioorganic & medicinal chemistry letters, 2009).

Target: PAI-1 (Homo sapiens, UniProt P05121)
Details: for inhibitory activity towards PAI-1 (in words): in vitro

Chain of PAI-1 (P05121 24-402, species assumed): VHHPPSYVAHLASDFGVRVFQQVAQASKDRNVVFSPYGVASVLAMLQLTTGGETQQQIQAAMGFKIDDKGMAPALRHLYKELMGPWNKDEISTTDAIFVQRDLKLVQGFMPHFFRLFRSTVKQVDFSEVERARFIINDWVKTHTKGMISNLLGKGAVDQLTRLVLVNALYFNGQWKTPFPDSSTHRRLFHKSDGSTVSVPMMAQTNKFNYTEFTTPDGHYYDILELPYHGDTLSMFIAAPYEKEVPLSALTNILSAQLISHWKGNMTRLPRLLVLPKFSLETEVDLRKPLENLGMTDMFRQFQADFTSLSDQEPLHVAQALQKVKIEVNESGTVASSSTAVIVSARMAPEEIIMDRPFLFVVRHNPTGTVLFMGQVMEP

Compound | inhibitory activity towards PAI-1 (in words) | other results
CCN(CCN(CC)S(=O)(=O)c1ccc(O)c(O)c1)S(=O)(=O)c1ccc(O)c(O)c1 [3b] |  | increase in inhibitor potency against PAI-1 compared to the non-alkylated version 3a (ratio of IC50 values vs 3a): about 55 fold
O=S(=O)(c1ccc(O)c(O)c1)N1CCN(S(=O)(=O)c2ccc(O)c(O)c2)CC1 [compound 4] | lacked significant inhibitory activity towards PAI-1 | 
CCN(CCN(CC)S(=O)(=O)c1cc(O)ccc1O)S(=O)(=O)c1cc(O)ccc1O [compound 7] | lacked significant potency towards PAI-1 | 
CCN(CCN(CC)S(=O)(=O)c1cc(F)c(O)c(F)c1)S(=O)(=O)c1cc(F)c(O)c(F)c1 [compound 13, bis-3,5-difluoro-4-hydroxybenzenesulfonamide] |  | fold less potent against PAI-1 than the 3,4-dihydroxy version (3b) (ratio of IC50 values vs 3b): roughly 15 fold
